Data as given in US20260007651A1, “Effect of YEL002 on Conditions and Diseases” (RadMit, Inc., priority 2022, published 2026).

Key:
[1] = system: three different cancer cell lines; test: Radiation killing of cancer cell lines; type: cell-based
[2] = Patient testimonial: subject post-chemotherapy, coughing and wheezing; type: in vivo, human; conditions: one hour after treatment
From the text: According to another patient testimonial, one subject post-chemotherapy had coughing and wheezing symptoms and went downhill very fast and their child was worried that they were dying.

[3] = Eye sight, eye exam in an ophthalmology office; type: in vivo, human
Description: The patient also observed no longer needing eyeglasses after 55 years of wearing them, and after 4 weeks with the drug, the subject can see much better than anybody their age. According to the patient, the compound fixed 2 diopters and 1 astigmatism of eye sight deficiency in only 4 weeks. An eye exam was conducted in an ophthalmology office. […] In every subject using the chemical the eye background is completely green, because YEL002 benefits the retina and optic nerve.

[4] = Patient testimonial: elevated levels of liver damage; type: in vivo, human; conditions: after two days of treatment; twice elevated for 25 years before
[5] = User study: periodontics or receding gums; design: species or system human; conditions: in vivo
From the text: In a user study, the patient's periodontics or receding gums were healed and no longer needed to floss teeth as much, since the teeth are now perfectly aligned and close together without a space in between.

[6] = system: mice irradiated with an LD100; test: Radiation mitigation: survival of mice irradiated with an LD100; type: in vivo
Description: There were 10 primary hits and 6 confirmed hits and 2 of them were used in mice. Mice were irradiated with an LD100 after which 100% of the mice died after 10 to 15 days. When the researchers injected YEL002 IP into the irradiated mice 24 hours after radiation and another four doses in 24 hours intervals 100% of the mice, so all mice which would otherwise have died survived which was a highly significant difference. Many lived a normal life span of more than 2 years which is interesting since other labs which isolated other compounds their mice died of late radiation effects much earlier.

[7] = Patient testimonial: subject on chemotherapy; type: in vivo, human; conditions: one week on YEL002, subject on chemotherapy
From the text: They are extremely happy and all their doctors are happy too and told them that they need to continue their experimental therapy.

lymphoma = test: Lymphoma incidence in mice (National Institute of Health experiment); type: in vivo; conditions: radiation exposure caused 90% to develop lymphoma without treatment
Description: This was observed after treating mice right after birth, if humans are treated later in life it is possible that only 10 or 5 years are added and probably more for DNA repair deficient diseases like ataxia telangiectasia (ATM) which is still very substantial.

Side effects observed = conditions: in vivo
From the text: It is also observed that three different cancer cell lines were not protected from radiation killing by YEL002, which indicates a use in radiation oncology or chemotherapy where the tumor can still be killed by the radiation, or chemotherapy but YEL002 protects the rest of the body from radiation or chemotherapy damage, and inhibits secondary carcinogenesis.

Solubility / appearance = type: physicochemical
Description: The compound takes the appearance of an off-white powder and is fat soluble. One takes a quarter teaspoon or about 0.5 g dissolved in a couple of teaspoons of oil. In an exemplary embodiment, it is dissolved in grape seed oil and taken twice a day, once in the morning and once in the evening. It is easy to use and has almost no taste.

human keratinocytes = test: Proteomics study of induced proteins; type: cell-based
From the text: In terms of mechanism of action in a proteomics study, the chemical was capable of inducing 244 different proteins in human keratinocytes, which comprised anti-inflammatory proteins, a number of DNA repair proteins, and even some neuroprotective proteins. It is known that turtles at the Galapagos Islands live 150 or more years without cancer and have multiple copies of DNA repair genes and anti-inflammatory genes. The compound boosts the expression of these genes in mammals. Since it induces DNA repair and is anti-inflammatory, it may be possible to prevent and cure many diseases and extend the life. In addition, patients are using the compound to try to treat Alzheimer's, multiple sclerosis, alopecia, diabetes, to prevent prostate cancer, to increase testosterone level, etc. People report feeling more energetic, less tired, and less combative and become nicer.

[8] = Patient testimonial: veins and blood; conditions: human, in vivo
From the text: His blood is thinner, since proinflammatory factors make platelets sticky and cause blood clots. Thus, it prevents or treats blood clots.

[9] = Patient testimonial: nose spray in oil, allergic attacks; type: in vivo, human; conditions: dissolved in oil, nose spray 2-4 times a day
From the text: According to another patient testimonial, one subject dissolved YEL002 in oil and used that oil to spray their nose 2-4 times a day.

[10] = Patient testimonial: heavy smoker, smoker's leg and hair loss; type: in vivo, human; conditions: one week after treatment
From the text: According to another patient testimonial, one subject was a heavy smoker and they had all kinds of inflammation problems including smoker's leg which were oozing lymph liquid and could not heal for many years.

ATM-deficient mice = test: Lifespan of ATM-deficient mice injected weekly; type: in vivo; conditions: ATM-deficient mice injected every week during most of their lifespans
[11] = Case study, eight weeks of use (coughing, diarrhea); type: in vivo, human; conditions: used for eight weeks
From the text: It has also beneficial effects on the skin and one needs less of a cosmetic cream containing the same compound.

COc1ccc2cc(-c3nc4ccc(C)cn4c3NCc3ccco3)c(=O)[nH]c2c1 [YEL002]
protection of cancer cell lines from radiation killing [1]: not protected | coughing and wheezing symptoms [2]: completely alleviated | need for eyeglasses ([3]; another subject who had 6 diopters): does not require eyeglasses any longer | eye sight deficiency fixed, astigmatism ([3]; in 4 weeks): 1 astigmatism | eye sight deficiency fixed, diopters ([3]; in 4 weeks): 2 diopters | levels of liver damage [4]: normal and below the cutoff | periodontics or receding gums [5]: healed | mice survived ([6]; LD100 irradiation, IP 24 hours after radiation and another four doses in 24 hours intervals, without treatment 100% died after 10 to 15 days): 100% | life span of surviving irradiated mice ([6]; many of the surviving mice): more than 2 years | body weight gained [7]: 2 kg | vomiting [7]: completely stopped | lymphoma incidence after radiation exposure (lymphoma): 40% | side effects (Side effects observed): no side effects | solubility (Solubility / appearance): fat soluble | number of different proteins induced (human keratinocytes; human keratinocytes, anti-inflammatory, DNA repair and neuroprotective proteins): 244 | number of neuroprotective functions induced (human keratinocytes; proteomics): 9 | blood [8]: thinner | varicose and spider veins [8]: fixes varicose and spider veins | allergic attacks such as sneezing and runny nose [9]: completely prevented all allergic attacks | hair loss [10]: completely stopped | smoker's leg condition [10]: completely healed | lived longer than without injections (ATM-deficient mice): 33% | symptoms of coughing and diarrhea [11]: reduced symptoms of coughing and diarrhea
